# Measurements published in PubChem BioAssay (NCI).
# Values joined by “and” are separate entries in the source; they are usually repeats but may differ in a detail not shown here. Identical values can stand only once.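 Following 48 hours of exposure in 96-well plates, responses at five concentrations were used to interpolate endpoints linearly. GI50 = concentration required for 50% inhibition of growth. TGI is the concentration that stops growth completely.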
# How the values were obtained:
# Assay in all cases: inhibition of tumour cell growth, NCI panel, 48 h
# MDA-MB-435 = system: MDA-MB-435
# MCF7 breast = system: MCF7 breast
# DU-145 prostate = system: DU-145 prostate
# M19-MEL melanoma = system: M19-MEL melanoma
# LXFL 529 NSCLC = system: LXFL 529 NSCLC
# DMS 273 small cell lung = system: DMS 273 small cell lung
# RXF-631 renal = system: RXF-631 renal
# MDA-N = system: MDA-N
Structure (SMILES),GI50 (MDA-MB-435),TGI (MDA-MB-435),GI50 (MCF7 breast),TGI (MCF7 breast),GI50 (DU-145 prostate),TGI (DU-145 prostate),TGI (M19-MEL melanoma),TGI (LXFL 529 NSCLC),TGI (DMS 273 small cell lung),TGI (RXF-631 renal),TGI (MDA-N)
Cc1ccc2ccc3c4ccccc4ccc3c2c1,18.1 µM,71 µM,15.5 µM,39.3 µM,34.6 µM,> 100 µM,,,,,
CC(C)(C)C1=NO[C@H]2[C@@H](NC(=O)c3ccccc3)CC[C@@H]12,,,,,,,> 100 µM,> 100 µM,,,
Cc1ccc(C(=O)Nc2ccc(Oc3cc4cnn(C)c4cc3-c3cn[nH]c3)c(F)c2)c(=O)n1-c1ccc(F)cc1,3.23 µM,> 100 µM,3.2 µM,> 100 µM,> 50 µM,> 100 µM,,,,,
O=C(CI)NC(=O)NC(=O)NCc1ccccc1,3.15 µM,11.7 µM,2.28 µM,8.59 µM,,,,,,,
CS(=O)(=O)OCCN1CCN(C(=O)c2ccc(Cl)c3c(Nc4ccc(S(=O)(=O)N=C(N)N)cc4)c4ccccc4nc23)CC1,,,,,,,> 100 µM,,> 100 µM,> 100 µM,
Nc1c(C(=O)Nc2ccccc2)sc2nc3c(cc12)C(=O)CCC3,0.139 µM,> 100 µM,0.366 µM,> 100 µM,0.328 µM,19.9 µM,,,,,
O=c1[nH]c(=S)[nH]c(O)c1/C=C1\C=Nc2ccccc21,2.01 µM,4.94 µM,3.95 µM,23.9 µM,10.3 µM,35.4 µM,,,,,
O=C1C2C(C(=O)N1Cc1ccccc1)N(Cc1ccccc1)C(=O)N2Cc1ccccc1 (stereo not drawn),,,,,,,> 100 µM,> 100 µM,,> 100 µM,
CCN(CC)CCCC(Nc1c2ccc(Cl)cc2nc2ccc(OC)cc12)c1ccc(Cl)cc1 (stereo not drawn),0.576 µM,1.93 µM,0.348 µM,1.43 µM,1.52 µM,3.03 µM,,,,,
COC(=O)[C@]12CC[C@@H](C)[C@H](C)[C@@H]1C1=CC[C@@H]3[C@@]4(C)C(C=O)=C[C@@](C)(COS(C)(=O)=O)C4=CC[C@@]3(C)[C@]1(C)CC2,0.177 µM,0.364 µM,0.265 µM,1.37 µM,0.317 µM,1.06 µM,,,,,
NC(=O)c1nc(-c2c(F)cccc2Cl)oc1Nc1ccc(C(=O)N2CCOCC2)cc1,2.03 µM,> 100 µM,0.596 µM,> 100 µM,11.9 µM,> 100 µM,,,,,
CCOC(=O)c1cc(C(=O)c2ccc(OC)c(OC)c2)n2c1ccc1ccc3cccnc3c12,,,2.25 µM,> 100 µM,3.45 µM,> 100 µM,,,,,
CN1CCCc2nc3ccccc3n2C1,,,,,,,> 100 µM,> 100 µM,> 100 µM,,
O=C(Nc1ccccc1C(=O)NC(=O)c1ccccc1NC(=O)c1ccccc1)c1ccccc1,,,,,,,,,7.78 µM,,
CCOC(=O)[C@@H](C)C[C@H](Cc1ccccc1)NC(=O)c1csc([C@@H](C[C@H](C(C)C)N(C)C(=O)CNC(=O)[C@H]2CCCCN2C)OC(C)=O)n1,0.228 µM,0.801 µM,0.319 µM,> 14.3 µM,0.58 µM,> 9.17 µM,,,,,
N#Cc1ccccc1Sc1ccccc1N,,,,,,,> 100 µM,> 100 µM,> 100 µM,,
CCCCCCCCCC1CC(=O)OC23CCCC(=O)C12O3 (stereo not drawn),,,,,,,> 100 µM,> 100 µM,> 100 µM,,
Cc1ccc(-n2nc(C(OC3OC(CO)C(O)C(O)C3O)C(O)CO)c3nc4cc(C)c(C)cc4nc32)cc1 (stereo not drawn),,,,,,,> 100 µM,> 100 µM,,> 100 µM,

Structure (SMILES),GI50 (MDA-MB-435),TGI (MDA-MB-435),GI50 (MCF7 breast),TGI (MCF7 breast),GI50 (DU-145 prostate),TGI (DU-145 prostate),TGI (M19-MEL melanoma),TGI (LXFL 529 NSCLC),TGI (DMS 273 small cell lung),TGI (RXF-631 renal),TGI (MDA-N)
COc1cc([C@@H]2c3cc4c(cc3[C@H](SC(=N)N)[C@H]3COC(=O)[C@H]23)OCO4)cc(OC)c1OC,,,0.0586 µM,> 100 µM,,,,,,,
CCC(Oc1ccc(OC)c2c1C(=O)CCC2)C(=O)O (stereo not drawn),,,,,,,> 100 µM,> 100 µM,> 100 µM,,
O=c1[nH]c2ccccc2cc1-c1nnc(Cc2ccccc2)o1,3.51 µM,17.5 µM,2.41 µM,12.9 µM,5.18 µM,18.5 µM,,,,,
S=C(Sc1ccc(Cl)cc1)Sc1ccc(Cl)cc1,1.92 µM,4.9 µM,2.38 µM,7.59 µM,3.6 µM,11.4 µM,,,,,
COc1ccc([C@@]23Oc4cc(OC)cc(OC)c4[C@]2(O)[C@H](O)[C@H](C(=O)N(C)C)[C@H]3c2ccccc2)cc1,,0.0434 µM and 0.0188 µM and 0.15 µM,,,0.0135 µM,0.0635 µM and 0.0375 µM and 0.219 µM,,,,,
CN(C)C1C(=O)C(C(N)=O)=C(O)C2(O)C(=O)C3=C(O)c4c(O)cccc4C(C)(O)C3CC12.[Cl][Sb]([Cl])[Cl] (stereo not drawn),2.91 µM,10.4 µM,3.55 µM,13 µM,4.33 µM,14.9 µM,,,,,
C#COc1cccc(Nc2ncnc3cc(NC(=O)[C@@H](C)Cl)ccc23)c1,1.65 µM,4.66 µM,18.8 µM,> 62.5 µM,16.2 µM,> 62.5 µM,,,,,
O=C1C=CC2(CCC23C=CC(=O)O3)O1 (stereo not drawn),,,,,,,> 100 µM,> 100 µM,,> 100 µM,
CN(C)CCCOc1ccc(NC2=C(Cl)C(=O)C(Nc3ccc(OCCCN(C)C)cc3)=C(Cl)C2=O)cc1,0.501 µM,1.05 µM,0.15 µM,0.376 µM,0.563 µM,1.13 µM,,,,,
N#CC(C(=O)Nc1ccccc1)C1=C(Cl)C(=O)c2ccccc2C1=O (stereo not drawn),,,,,,,21.8 µM,35.5 µM,,,
OCC1OC(OC2(CO)OC(CO)C(O)C2O)C(O)C(O)C1O (stereo not drawn),> 100 µM,> 100 µM,,,> 100 µM,> 100 µM,,,,,
Nc1ncnc2c1c(-c1ccc(Oc3ccccc3)cc1)nn2CC1SSCC1O (stereo not drawn),0.121 µM,0.47 µM,1.44 µM,7.85 µM,4.15 µM,9.01 µM,,,,,
Nc1nc(Cl)c2ncn(Cc3ccc(C45CC6CC(CC(C6)C4)C5)c(OCc4cc(F)c(F)cc4F)c3)c2n1,2.98 µM,17.6 µM,3.12 µM,16.3 µM,4.08 µM,15.7 µM,,,,,
C/C(=C/CCC(C)[C@@H]1CC[C@]2(C)C3=C(CC[C@@]12C)[C@@]1(C)CCC(=O)C(C)(C)[C@@H]1CC3)C(=O)O (stereo partly drawn),1.25 µM,2.74 µM,1.02 µM,2.87 µM,1.2 µM,2.56 µM,,,,,
CC(=O)Nc1cccc(C#Cc2cncnc2Nc2ccc(OCc3cccc(F)c3)c(Cl)c2)c1,8.14 µM,> 25 µM,8.33 µM,> 25 µM,10 µM,> 25 µM,,,,,
C#Cc1cccc(NC(=O)/C=C\C(=O)O)c1,,,,,,,,> 100 µM,,,
Nc1nc(-c2ccccc2)c(CC(=O)O)s1,,> 100 µM,,> 100 µM,,> 100 µM,,,,,> 100 µM
